# From patent US4015974A, “Amido phosphorothiolates” (priority 1972, dated 1977)
# Columns and labels:
# Assay type in all cases: in vivo
# [1] = test system: common purslane (Portulaca oleracea); test: Pre-emergence application, herbicidal effect on common purslane (Table 1); design: key: 0: not damaged; 5: completely killed; details: 20 days after application, score 0-5
# Text: (§1) Seeds of barnyard grass (Echinochloa crus-galli) and large crabgrass (Digitaria sanguinalis) as representatives of grassy weeds and those of radish, redroot pigweed (Amaranthus retroflexus), common purslane (Portulaca oleracea) and common lambsquarter (Chenopodium album) as representatives of broad-leaved weeds were individually sowed in flower pots of about 10 cm. in diameter. After covering the seeds with soil, test compounds as shown in Table 1 were individually applied to the soil treatment. Thereafter the plants were grown in a green house and 20 days after application the herbicidal effects of the compounds were observed, the results of which are as shown in Table 1.
# (§2) Herbicidal effects were evaluated by the numerals ranging from 0 (not damaged) to 5 (completely killed). All the test compounds were used in the form of wettable powder and diluted with water before application.
# [2] = test system: large crabgrass (Digitaria sanguinalis); test: Pre-emergence application, herbicidal effect on large crabgrass (Table 1); design: key: 0: not damaged; 5: completely killed; details: 20 days after application, score 0-5
# Text: as §1, §2
# [3] = test system: common lambsquarter (Chenopodium album); test: Pre-emergence application, herbicidal effect on common lambsquarter (Table 1); design: key: 0: not damaged; 5: completely killed; details: 20 days after application, score 0-5
# Text: as §1, §2
# [4] = test system: barnyard grass (Echinochloa crus-galli); test: Pre-emergence application, herbicidal effect on barnyard grass (Table 1); design: key: 0: not damaged; 5: completely killed; details: 20 days after application, score 0-5
# Text: as §1, §2
# rice = test: Water application, phytotoxicity on rice (Table 2); design: key: 0: no effect; 1: very slightly affected; 2: slightly affected; 3: moderately affected; 4: considerably affected; 5: completely killed; details: 25 days, score 0-5
# Text: (§3) Wagner pots of 14 cm. in diameter, which had been packed with 1.5 kg. of paddy field soil, were brought into the state of paddy fields. To the pots were transplanted rice seedlings at the 3-leave stage. Further, seeds of barnyard grass (Echinochloa crus-galli) were sowed in the pots and required amounts of test compounds were applied to the soil under water lodged condition. 25 days after application, the degrees of herbicidal activity and phytotoxity were investigated on above-mentioned plants which had been transplanted and sowed, and on broad-leaved weeds, e.g., monochoria (Monochoria viaginalis Presl.), false pimpernel (Linderna pyxidaria) and toothcup (Rotala indica Koehue), which had been spontaneously germinated. The test compounds were used in the form of wettable powder. The herbicidal effects and the phytotoxity were evaluated as follows by the numerals ranging from 0 to 5.
# [5] = test system: barnyard grass (Echinochloa crus-galli); test: Water application, herbicidal effect on barnyard grass (Table 2); design: key: 0: not damaged; 5: completely killed; details: 25 days, score 0-5
# Text: as §3
# [6] = test system: redroot pigweed (Amaranthus retroflexus); test: Pre-emergence application, herbicidal effect on redroot pigweed (Table 1); design: key: 0: not damaged; 5: completely killed; details: 20 days after application, score 0-5
# Text: as §1, §2
# radish = test: Pre-emergence application, herbicidal effect on radish (Table 1); design: key: 0: not damaged; 5: completely killed; details: 20 days after application, score 0-5
# Text: as §1, §2
# [7] = test system: broad-leaved weeds, e.g., monochoria, false pimpernel and toothcup; test: Water application, herbicidal effect on broad-leaved weeds (Table 2); design: key: 0: not damaged; 5: completely killed; details: 25 days, score 0-5
# Text: as §3
Compound,"Herbicidal effect, common purslane ([1]; 10 g./a.)","Herbicidal effect, common purslane ([1]; 20 g./a.)","Herbicidal effect, common purslane ([1]; 40 g./a.)","Herbicidal effect, large crabgrass ([2]; 10 g./a.)","Herbicidal effect, large crabgrass ([2]; 20 g./a.)","Herbicidal effect, large crabgrass ([2]; 40 g./a.)","Herbicidal effect, common lambsquarter ([3]; 10 g./a.)","Herbicidal effect, common lambsquarter ([3]; 20 g./a.)","Herbicidal effect, common lambsquarter ([3]; 40 g./a.)","Herbicidal effect, barnyard grass ([4]; 10 g./a.)","Herbicidal effect, barnyard grass ([4]; 20 g./a.)","Herbicidal effect, barnyard grass ([4]; 40 g./a.)",Phytotoxicity on rice (rice; 10 g/a),Phytotoxicity on rice (rice; 20 g/a),Phytotoxicity on rice (rice; 40 g/a),"Herbicidal effects, barnyard grass ([5]; 10 g/a)","Herbicidal effects, barnyard grass ([5]; 20 g/a)","Herbicidal effects, barnyard grass ([5]; 40 g/a)","Herbicidal effect, redroot pigweed ([6]; 10 g./a.)","Herbicidal effect, redroot pigweed ([6]; 20 g./a.)",also measured
CCCOP(=O)(SCC)SCC(=O)N1CCCCC1CC (stereo not drawn) [Compound 84],5,5,5,5,5,5,4,5,5,5,5,5,0,0,2,5,5,5,4,5,"Herbicidal effect, redroot pigweed ([6]; 40 g./a.): 5; Herbicidal effect, radish (radish; 10 g./a.): 0; Herbicidal effect, radish (radish; 20 g./a.): 1; Herbicidal effect, radish (radish; 40 g./a.): 2; Herbicidal effects, broad-leaved weeds ([7]; 10 g/a): 5; Herbicidal effects, broad-leaved weeds ([7]; 20 g/a): 5; Herbicidal effects, broad-leaved weeds ([7]; 40 g/a): 5"
C=C(C)CSP(=O)(OCC)SCC(=O)N1CCCCC1CC (stereo not drawn) [Compound 81],5,5,5,5,5,5,5,5,5,5,5,5,0,0,1,5,5,5,5,5,"Herbicidal effect, redroot pigweed ([6]; 40 g./a.): 5; Herbicidal effect, radish (radish; 10 g./a.): 0; Herbicidal effect, radish (radish; 20 g./a.): 0; Herbicidal effect, radish (radish; 40 g./a.): 1; Herbicidal effects, broad-leaved weeds ([7]; 10 g/a): 5; Herbicidal effects, broad-leaved weeds ([7]; 20 g/a): 5; Herbicidal effects, broad-leaved weeds ([7]; 40 g/a): 5"
CCCCOP(=O)(SCCCC)SCC(=O)N1CCCCC1CC (stereo not drawn) [Compound 95],2,3,3,4,5,5,2,3,4,4,5,5,0,0,0,5,5,5,2,3,"Herbicidal effect, redroot pigweed ([6]; 40 g./a.): 3; Herbicidal effect, radish (radish; 10 g./a.): 0; Herbicidal effect, radish (radish; 20 g./a.): 0; Herbicidal effect, radish (radish; 40 g./a.): 0; Herbicidal effects, broad-leaved weeds ([7]; 10 g/a): 5; Herbicidal effects, broad-leaved weeds ([7]; 20 g/a): 5; Herbicidal effects, broad-leaved weeds ([7]; 40 g/a): 5"
CCCCCSP(=O)(OCCC)SCC(=O)N1CCCCC1CC (stereo not drawn) [Compound 89],3,4,5,4,5,5,3,4,5,4,5,5,0,0,0,5,5,5,3,4,"Herbicidal effect, redroot pigweed ([6]; 40 g./a.): 5; Herbicidal effect, radish (radish; 10 g./a.): 0; Herbicidal effect, radish (radish; 20 g./a.): 0; Herbicidal effect, radish (radish; 40 g./a.): 0; Herbicidal effects, broad-leaved weeds ([7]; 10 g/a): 5; Herbicidal effects, broad-leaved weeds ([7]; 20 g/a): 5; Herbicidal effects, broad-leaved weeds ([7]; 40 g/a): 5"
CCOP(=O)(SCC)SCC(=O)N1CCCCC1CC (stereo not drawn) [Compound 75],5,5,5,5,5,5,5,5,5,5,5,5,0,0,1,5,5,5,5,5,"Herbicidal effect, redroot pigweed ([6]; 40 g./a.): 5; Herbicidal effect, radish (radish; 10 g./a.): 0; Herbicidal effect, radish (radish; 20 g./a.): 1; Herbicidal effect, radish (radish; 40 g./a.): 2; Herbicidal effects, broad-leaved weeds ([7]; 10 g/a): 5; Herbicidal effects, broad-leaved weeds ([7]; 20 g/a): 5; Herbicidal effects, broad-leaved weeds ([7]; 40 g/a): 5"
C=CCSP(=O)(OCCC)SCC(=O)N1CCCCC1C (stereo not drawn) [Compound 70],5,5,5,5,5,5,5,5,5,5,5,5,0,0,2,5,5,5,5,5,"Herbicidal effect, redroot pigweed ([6]; 40 g./a.): 5; Herbicidal effect, radish (radish; 10 g./a.): 0; Herbicidal effect, radish (radish; 20 g./a.): 0; Herbicidal effect, radish (radish; 40 g./a.): 0; Herbicidal effects, broad-leaved weeds ([7]; 10 g/a): 5; Herbicidal effects, broad-leaved weeds ([7]; 20 g/a): 5; Herbicidal effects, broad-leaved weeds ([7]; 40 g/a): 5"
CCCCOP(=O)(SCCC(C)C)SCC(=O)N1CCCCC1CC (stereo not drawn) [Compound 99],5,5,5,5,5,5,5,5,5,4,5,5,0,0,0,5,5,5,4,5,"Herbicidal effect, redroot pigweed ([6]; 40 g./a.): 5; Herbicidal effect, radish (radish; 10 g./a.): 0; Herbicidal effect, radish (radish; 20 g./a.): 0; Herbicidal effect, radish (radish; 40 g./a.): 0; Herbicidal effects, broad-leaved weeds ([7]; 10 g/a): 5; Herbicidal effects, broad-leaved weeds ([7]; 20 g/a): 5; Herbicidal effects, broad-leaved weeds ([7]; 40 g/a): 5"
